The source of these data is US20230407243A1, “GENETIC PLATFORM TO INVESTIGATE THE FUNCTIONS OF BACTERIAL DRUG EFFLUX PUMPS” (priority 2022, published 2023).

Common to all, as to format: cell-based, Escherichia coli
One assay concerns ΔtolC-Pore. Put plainly: microbe, parasite or virus in culture. Here is the method:
(§1) For genomic integration of the pore, the fhuA ΔC/Δ4L gene and the adjacent gentamicin resistance cassette were amplified using a high-fidelity polymerase and the fhuA_40_Up/gImS_3680_Low primers (Table 4). Integration of the pore gene was performed as described above. The pore gene was introduced into the intergenic region between the glmS and pstS genes, with gene expression under the control of a constitutive promoter (Kearse, M. et al., 2012). Genomic integrations were verified using PCR (Primers: pstS_520_Up/glmS_3680_Low, Table 4). Successful integrations were transformed with pCP20 to remove the gentamicin resistance cassette as previously described. Activity of the pore was confirmed through susceptibility testing with the large antibiotic vancomycin prior to phenotypic profiling and further susceptibility testing.
(§2) Single colonies were used to inoculate 3 mL of LB followed by incubation at 37° C. for 18 h with aeration at 220 rpm. The bacterial cells were harvested by centrifugation and resuspended in phosphate buffered saline (PBS) ([pH 7.4], 137 mM NaCl (Bioshop), 2.7 mM KCl (Bioshop), 10 mM Na2PO4 (Bioshop) and 1.8 mM K2PO4) to an OD600 nm˜1.0, followed by 1/2000 dilution into MHB II.
(§3) To a 384-well microtiter plate (Corning, untreated polystyrene), 500 nL of compound was dispensed, in duplicate, and serially titrated 2-fold using an Echo 550 acoustic liquid dispenser (Labcyte Inc.). […] As a solvent control, 500 nL of DMSO was applied to wells that contained no compound. Using a multichannel pipette, 50 μL of the prepared bacterial inoculum was applied to each well. To enable background correction post-incubation, the OD600 nm was measured (Biotek Synergy Neo2 microplate reader) prior to incubation. The plates were incubated at 37° C. with aeration at 900 rpm for 18 h. The plates were equilibrated to room temperature and the OD600 nm measured using a BioTek Synergy Neo2 microplate reader. Data was analyzed in both Prism (GraphPad, Version 9.2.0) and Microsoft Excel (Version 16.53). Raw data were input into Microsoft Excel and the pre-incubation OD600 nm measurements were subtracted from the post-incubation OD600 nm measurements. These corrected measurements were input into Prism 9 as a grouped analysis. […] All other MIC values were adjusted accordingly and visualized using the single-color scale grouped heat map function. Identification of compound chemical properties was achieved using DataWarrior (Version 5.5.0). Using PubChem, the SMILES chemical notation for each compound was obtained and compiled in Microsoft Excel. The resulting spreadsheet was input into DataWarrior and properties were calculated from the compound chemical structures.

The subject of the next assay is wild-type (WT) K-12-Pore. Nature of the assay: microbe, parasite or virus in culture. Conditions: Escherichia coli, technical duplicate. On the procedure: as §1, §2, §3
Another assay relates to EKO-35 araC::acrB. Put plainly: MIC susceptibility profiling, efflux platform. Conditions: Escherichia coli; Table 13A; non-porinated; technical duplicate; read-out: Minimum Inhibitory Concentration, EKO-35 araC::acrB. On the procedure: as §2, §3
For the next assay, the system named is EKO-35 araC::acrEF. Nature of the assay: MIC susceptibility profiling, efflux platform. The conditions noted are these: Escherichia coli; Table 13A; non-porinated; technical duplicate; read-out: Minimum Inhibitory Concentration, EKO-35 araC::acrEF. On the procedure: as §2, §3
Assay [1] concerns EKO-35 araC::mexCD (MexCD from P. aeruginosa). Nature of the assay: MIC susceptibility profiling, efflux platform. Conditions: Table 13B; non-porinated; technical duplicate; read-out: Minimum Inhibitory Concentration, EKO-35 araC::mexCD. Here is the method: as §2, §3
For assay [2], the system named is EKO-35 araC::acrBD408A Pore. Put plainly: MIC susceptibility profiling, porinated efflux platform. The conditions noted are these: Escherichia coli; EKO-35 araC::acrBD408A Pore; technical duplicate; read-out: Minimum inhibitory concentration. On the procedure:
as §1, §2, §3

The test system of another assay is EKO-35 araC::macAB Pore. The description is as above. The conditions noted are these: Escherichia coli; EKO-35 araC::macAB Pore; technical duplicate; read-out: Minimum inhibitory concentration. Here is the method: as §1, §2, §3
The next assay concerns EKO-35 araC::acrB Pore. Described as above. The conditions noted are these: Escherichia coli; Table 14A; porinated; technical duplicate; read-out: Minimum inhibitory concentration, EKO-35 araC::acrB Pore. On the procedure:
as §1, §2, §3

In the next assay the test system is EKO-35 araC::acrEF Pore. The description is as above. The conditions noted are these: Escherichia coli; Table 14A; porinated; technical duplicate; read-out: Minimum inhibitory concentration, EKO-35 araC::acrEF Pore. On the procedure: as §1, §2, §3
The subject of the next assay is EKO-35 araC::mdtBC Pore. The assay is described as above. The conditions noted are these: Escherichia coli; EKO-35 araC::mdtBC Pore; technical duplicate; read-out: Minimum inhibitory concentration. On the procedure: as §1, §2, §3
For another assay, the system named is EKO-35 araC::mdtEF Pore. The description is as above. The conditions noted are these: Escherichia coli; Table 14A; porinated; technical duplicate; read-out: Minimum inhibitory concentration, EKO-35 araC::mdtEF Pore. On the procedure: as §1, §2, §3
A further assay has as its system EKO-35 araC::acrD Pore. The description is as above. Conditions: Escherichia coli; Table 14A; porinated; technical duplicate; read-out: Minimum inhibitory concentration, EKO-35 araC::acrD Pore. On the procedure: as §1, §2, §3
The next assay deals with EKO-35 araC::emrKY Pore. The description is as above. Conditions: Escherichia coli; EKO-35 araC::emrKY Pore; technical duplicate; read-out: Minimum inhibitory concentration. Here is the method: as §1, §2, §3
For a further assay, the system named is EKO-35-Pore. Put plainly: MIC susceptibility profiling, porinated strain. The conditions noted are these: Escherichia coli, technical duplicate. On the procedure: as §1, §2, §3
The test system of the next assay is E. coli EKO-35. Put plainly: microbe, parasite or virus in culture. Conditions: Escherichia coli, EKO35, technical duplicate. Here is the method:
as §2, §3

Assay [3] relates to wild-type E. coli K-12 str. BW25113. Nature of the assay: microbe, parasite or virus in culture. The conditions noted are these: Escherichia coli, BW25113, technical duplicate. Here is the method:
as §2, §3

For the next assay, the system named is E. coli ΔtolC. Put plainly: microbe, parasite or virus in culture. Here is the method: as §2, §3

Like-named read-outs stand apart in the source and are kept apart here.

`O=C(O)c1cn(C2CC2)c2cc(N3CCNCC3)c(F)cc2c1=O` [ciprofloxacin]: the MIC stood at 2 ng/mL in the assay with ΔtolC-Pore (Escherichia coli, 18 h, read-out: Minimum inhibitory concentration, ΔtolC-Pore); 5 ng/mL with wild-type (WT) K-12-Pore (Table 10, with pore, read-out: Minimum inhibitory concentration (MIC), Pore K-12); 5 ng/mL with wild-type (WT) K-12-Pore (Table 14A, porinated, read-out: Minimum inhibitory concentration, K-12 (WT)-Pore); 20 ng/mL with EKO-35 araC::acrB; 20 ng/mL in the assay on EKO-35 araC::acrEF; 10 ng/mL in [1]. Also, the MIC in assay [2] is 2 ng/mL; in the assay with EKO-35 araC::macAB Pore, 2 ng/mL; with EKO-35 araC::acrB Pore, 9 ng/mL; in the assay with EKO-35 araC::acrEF Pore, 10 ng/mL; in the assay on EKO-35 araC::mdtBC Pore it was 2 ng/mL; in the assay with EKO-35 araC::mdtEF Pore, 2 ng/mL. In addition, the MIC came out at 2 ng/mL in the assay with EKO-35 araC::acrD Pore; 2 ng/mL in the assay on EKO-35 araC::emrKY Pore; 2 ng/mL in the assay on EKO-35-Pore (Table 10, with pore, read-out: Minimum inhibitory concentration (MIC), Pore EKO-35); 2 ng/mL in the assay on EKO-35-Pore (Table 14A, porinated, read-out: Minimum inhibitory concentration, EKO-35-Pore); 5 ng/mL with E. coli EKO-35 (Table 10, without pore, read-out: Minimum inhibitory concentration (MIC), EKO-35); 5 ng/mL in the assay on E. coli EKO-35 (Table 13A, non-porinated, read-out: Minimum Inhibitory Concentration, EKO-35). For the same molecule, the MIC stood at 10 ng/mL in assay [3] (Table 10, without pore, read-out: Minimum inhibitory concentration (MIC), K-12); 10 ng/mL in [3] (Table 13A, non-porinated, read-out: Minimum Inhibitory Concentration, K-12); 5 ng/mL in the assay on E. coli ΔtolC (Escherichia coli, 18 h, read-out: Minimum Inhibitory Concentration, ΔtolC). Moreover, the “Minimum inhibitory concentration (MIC), Pore ΔtolC” value in the assay on ΔtolC-Pore (Table 10, with pore, technical duplicate) stood at 2 ng/mL. Further, the “Minimum inhibitory concentration (MIC), ΔtolC” value in the assay on E. coli ΔtolC (Table 10, without pore, technical duplicate) came to 5 ng/mL.
